Results: the supplement of paper PMC10307832

How the values were obtained:
Assay in all cases: relative viability (nuclei count vs DMSO), 5 days (fraction); higher = more cells survive
[1] = test system: SK-MES-1
How it was run: (§1)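 Five library-drug doses in √10 steps were combined with a fixed anchor-drug dose, or a single drug was given alone, by pin tool to lung cancer cell lines in 1536-well plates the day after seeding. Nuclei were stained and counted after 5 days. Relative viability is the nuclei count in treated wells over that in vehicle wells, taken as the median of duplicate plates.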

[2] = test system: COR-L 105
How it was run: as §1

[3] = test system: HCC-78
How it was run: as §1

[4] = test system: PC-14
How it was run: as §1

[5] = test system: 201T
How it was run: as §1

[6] = test system: HCC-366
How it was run: as §1

[7] = test system: NCI-H1993
How it was run: as §1

[8] = test system: NCI-H1563
How it was run: as §1

[9] = test system: BEN
How it was run: as §1

[10] = test system: LK-2
How it was run: as §1

[11] = test system: NCI-H1915
How it was run: as §1

[12] = test system: NCI-H1734
How it was run: as §1

[13] = test system: NCI-H2405
How it was run: as §1

[14] = test system: EKVX
How it was run: as §1

[15] = test system: NCI-H661
How it was run: as §1

[16] = test system: NCI-H460
How it was run: as §1

[17] = test system: COR-L23
How it was run: as §1

[18] = test system: HCC-15
How it was run: as §1

[19] = test system: A-427
How it was run: as §1

[20] = test system: EMC-BAC-2
How it was run: as §1

[21] = test system: NCI-H647
How it was run: as §1

[22] = test system: HOP-62
How it was run: as §1

With `Cc1csc(=NC2CCCCC2)n1/N=C/c1ccc(O)c(O)c1O` [MIM1] + C[C@]1(O)C[C@@H](c2nc(-c3ccc4ccc(-c5ccccc5)nc4c3)c3c(N)nccn32)C1 [Linsitinib] (partner 1 µM) the relative viability ([1]; first compound 0.2 µM) was 0.988, the relative viability ([1]; first compound 0.6325 µM) was 0.988 and the relative viability ([1]; first compound 2 µM) was 1.02. It also gave a relative viability ([1]; first compound 6.325 µM) of 0.853, a relative viability ([1]; first compound 20 µM) of 0.848 and a relative viability ([2]; first compound 0.2 µM) of 0.899. For the same compound, the relative viability ([2]; first compound 0.6325 µM) was 1.04, the relative viability ([2]; first compound 2 µM) was 0.898 and the relative viability ([2]; first compound 6.325 µM) was 0.962. For the same compound, the relative viability ([2]; first compound 20 µM) was 0.796, the relative viability ([3]; first compound 0.2 µM) was 0.551 and the relative viability ([3]; first compound 0.6325 µM) was 0.594. The relative viability ([3]; first compound 2 µM) was 0.488, the relative viability ([3]; first compound 6.325 µM) was 0.439 and the relative viability ([3]; first compound 20 µM) was 0.541. For the same compound, the relative viability ([4]; first compound 0.2 µM) was 0.893, the relative viability ([4]; first compound 0.6325 µM) was 0.932 and the relative viability ([4]; first compound 2 µM) was 0.956. It also gave a relative viability ([4]; first compound 6.325 µM) of 0.719, a relative viability ([4]; first compound 20 µM) of 0.499 and a relative viability ([5]; first compound 0.2 µM) of 1.02. For the same compound, the relative viability ([5]; first compound 0.6325 µM) was 1.04, the relative viability ([5]; first compound 2 µM) was 1.04 and the relative viability ([5]; first compound 6.325 µM) was 1.03. The relative viability ([5]; first compound 20 µM) was 1.25, the relative viability ([6]; first compound 0.2 µM) was 0.511 and the relative viability ([6]; first compound 0.6325 µM) was 0.715. For the same compound, the relative viability ([6]; first compound 2 µM) was 0.565, the relative viability ([6]; first compound 6.325 µM) was 0.361 and the relative viability ([6]; first compound 20 µM) was 0.0221. For the same compound, the relative viability ([7]; first compound 0.2 µM) was 0.736, the relative viability ([7]; first compound 0.6325 µM) was 0.715 and the relative viability ([7]; first compound 2 µM) was 0.63. For the same compound, the relative viability ([7]; first compound 6.325 µM) was 0.68, the relative viability ([7]; first compound 20 µM) was 0.646 and the relative viability ([8]; first compound 0.2 µM) was 1.13. For the same compound, the relative viability ([8]; first compound 0.6325 µM) was 1.29, the relative viability ([8]; first compound 2 µM) was 1.1 and the relative viability ([8]; first compound 6.325 µM) was 0.977. It also gave a relative viability ([8]; first compound 20 µM) of 0.957, a relative viability ([9]; first compound 0.2 µM) of 0.888 and a relative viability ([9]; first compound 0.6325 µM) of 0.877. For the same compound, the relative viability ([9]; first compound 2 µM) was 0.981, the relative viability ([9]; first compound 6.325 µM) was 0.826 and the relative viability ([9]; first compound 20 µM) was 0.42. It also gave a relative viability ([10]; first compound 0.2 µM) of 0.801, a relative viability ([10]; first compound 0.6325 µM) of 0.631 and a relative viability ([10]; first compound 2 µM) of 0.519. It also gave a relative viability ([10]; first compound 6.325 µM) of 0.566, a relative viability ([10]; first compound 20 µM) of 0.179 and a relative viability ([11]; first compound 0.2 µM) of 1.09. The relative viability ([11]; first compound 0.6325 µM) was 1.03, the relative viability ([11]; first compound 2 µM) was 1.08 and the relative viability ([11]; first compound 6.325 µM) was 0.978. The relative viability ([11]; first compound 20 µM) was 0.872, the relative viability ([12]; first compound 0.2 µM) was 0.829 and the relative viability ([12]; first compound 0.6325 µM) was 1.01. It also gave a relative viability ([12]; first compound 2 µM) of 0.853, a relative viability ([12]; first compound 6.325 µM) of 0.754 and a relative viability ([12]; first compound 20 µM) of 0.422. The relative viability ([13]; first compound 0.2 µM) was 0.906, the relative viability ([13]; first compound 0.6325 µM) was 1.08 and the relative viability ([13]; first compound 2 µM) was 0.946. For the same compound, the relative viability ([13]; first compound 6.325 µM) was 0.778, the relative viability ([13]; first compound 20 µM) was 0.742 and the relative viability ([14]; first compound 0.2 µM) was 1.03. For the same compound, the relative viability ([14]; first compound 0.6325 µM) was 0.867, the relative viability ([14]; first compound 2 µM) was 0.958 and the relative viability ([14]; first compound 6.325 µM) was 0.631. For the same compound, the relative viability ([14]; first compound 20 µM) was 0.667, the relative viability ([15]; first compound 0.2 µM) was 0.575 and the relative viability ([15]; first compound 0.6325 µM) was 0.737. The relative viability ([15]; first compound 2 µM) was 0.547, the relative viability ([15]; first compound 6.325 µM) was 0.449 and the relative viability ([15]; first compound 20 µM) was 0.255. It also gave a relative viability ([16]; first compound 0.2 µM) of 0.791, a relative viability ([16]; first compound 0.6325 µM) of 0.783 and a relative viability ([16]; first compound 2 µM) of 0.582. It also gave a relative viability ([16]; first compound 6.325 µM) of 0.287, a relative viability ([16]; first compound 20 µM) of 0.022 and a relative viability ([17]; first compound 0.2 µM) of 0.77. For the same compound, the relative viability ([17]; first compound 0.6325 µM) was 1.12, the relative viability ([17]; first compound 2 µM) was 1.01 and the relative viability ([17]; first compound 6.325 µM) was 0.813. For the same compound, the relative viability ([17]; first compound 20 µM) was 0.498, the relative viability ([18]; first compound 0.2 µM) was 0.901 and the relative viability ([18]; first compound 0.6325 µM) was 0.808. The relative viability ([18]; first compound 2 µM) was 0.941, the relative viability ([18]; first compound 6.325 µM) was 0.476 and the relative viability ([18]; first compound 20 µM) was 0.211. It also gave a relative viability ([19]; first compound 0.2 µM) of 1.09, a relative viability ([19]; first compound 0.6325 µM) of 1.14 and a relative viability ([19]; first compound 2 µM) of 1.11. For the same compound, the relative viability ([19]; first compound 6.325 µM) was 1.07, the relative viability ([19]; first compound 20 µM) was 0.505 and the relative viability ([20]; first compound 0.2 µM) was 0.776. For the same compound, the relative viability ([20]; first compound 0.6325 µM) was 0.822, the relative viability ([20]; first compound 2 µM) was 0.784 and the relative viability ([20]; first compound 6.325 µM) was 0.757. It also gave a relative viability ([20]; first compound 20 µM) of 0.328, a relative viability ([21]; first compound 0.2 µM) of 1.28 and a relative viability ([21]; first compound 0.6325 µM) of 1.07. The relative viability ([21]; first compound 2 µM) was 1.32, the relative viability ([21]; first compound 6.325 µM) was 0.807 and the relative viability ([21]; first compound 20 µM) was 0.868. For the same compound, the relative viability ([22]; first compound 0.2 µM) was 0.977, the relative viability ([22]; first compound 0.6325 µM) was 1.04 and the relative viability ([22]; first compound 2 µM) was 0.905. The relative viability ([22]; first compound 6.325 µM) was 0.658 and the relative viability ([22]; first compound 20 µM) was 0.936.
